Measured values as given in ChEMBL document CHEMBL1909046, “DrugMatrix in vitro pharmacology data”.
Where a SMILES comes first, the peptide text is derived from it. Bridges are numbered along the chain shown (N, C = ends). [ ]: non-standard residue; d: D form. The star is where a group is joined. Threoninol(2S,3R) = C[C@@H](O)[C@H](CO)N*

Legend:
[1] = DRUGMATRIX: beta-Lactamase enzyme inhibition (substrate: Nitrocefin); parameters: species or system Bacillus cereus; conditions: Not Active = under 50% inhibition at 10 µM
[2] = DRUGMATRIX: Glutamate, Kainate radioligand binding (ligand: [3H] Kainic acid); type: cell membranes, Rattus norvegicus, Wistar, Brain, Membrane; conditions: Not Active = under 50% inhibition at 10 µM
[3] = DRUGMATRIX: GABAA, Muscimol, Central radioligand binding (ligand: [3H] Muscimol); type: cell membranes, Rattus norvegicus, Wistar, Brain, Membrane; conditions: Not Active = under 50% inhibition at 10 µM
[4] = DRUGMATRIX: Glutamate, NMDA, Phencyclidine radioligand binding (ligand: [3H] TCP); type: cell membranes, Rattus norvegicus, Wistar, Cerebral cortex, Membrane; conditions: Not Active = under 50% inhibition at 10 µM
[5] = target: cGMP-specific 3',5'-cyclic phosphodiesterase (Homo sapiens, UniProt O76074); experiment: DRUGMATRIX: Phosphodiesterase PDE5 enzyme inhibition (substrate: [3H]cGMP + cGMP); type: tissue-based; conditions: platelet; Not Active = under 50% inhibition at 10 µM
Cytochrome P450 2D6 = Cytochrome P450 2D6 (Homo sapiens, UniProt P10635); conditions: bti-tn-5b1-4; also: in other assays of this panel Not Active means under 50% inhibition at 10 µM
Sequence of Cytochrome P450 2D6 (P10635 whole entry): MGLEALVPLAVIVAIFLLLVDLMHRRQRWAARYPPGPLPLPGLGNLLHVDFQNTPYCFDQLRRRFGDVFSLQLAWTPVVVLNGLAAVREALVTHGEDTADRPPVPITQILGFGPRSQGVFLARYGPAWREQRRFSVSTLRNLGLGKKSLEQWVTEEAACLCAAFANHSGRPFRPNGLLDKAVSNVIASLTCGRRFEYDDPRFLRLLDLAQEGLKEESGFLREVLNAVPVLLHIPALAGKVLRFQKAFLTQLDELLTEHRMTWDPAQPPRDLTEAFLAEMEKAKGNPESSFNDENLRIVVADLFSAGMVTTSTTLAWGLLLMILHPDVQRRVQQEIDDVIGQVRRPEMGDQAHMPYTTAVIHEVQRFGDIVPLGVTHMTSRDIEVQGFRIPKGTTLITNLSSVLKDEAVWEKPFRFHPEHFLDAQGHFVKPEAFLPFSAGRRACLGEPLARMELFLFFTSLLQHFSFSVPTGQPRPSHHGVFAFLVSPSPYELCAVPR

[6] = target: Mitogen-activated protein kinase 1 (Homo sapiens, UniProt P28482); experiment: DRUGMATRIX: Protein Serine/Threonine Kinase, ERK2 enzyme inhibition (substrate: Myelin Basic Protein); parameters: species or system Escherichia coli; conditions: Not Active = under 50% inhibition at 10 µM
Sequence of Mitogen-activated protein kinase 1 (P28482 whole entry): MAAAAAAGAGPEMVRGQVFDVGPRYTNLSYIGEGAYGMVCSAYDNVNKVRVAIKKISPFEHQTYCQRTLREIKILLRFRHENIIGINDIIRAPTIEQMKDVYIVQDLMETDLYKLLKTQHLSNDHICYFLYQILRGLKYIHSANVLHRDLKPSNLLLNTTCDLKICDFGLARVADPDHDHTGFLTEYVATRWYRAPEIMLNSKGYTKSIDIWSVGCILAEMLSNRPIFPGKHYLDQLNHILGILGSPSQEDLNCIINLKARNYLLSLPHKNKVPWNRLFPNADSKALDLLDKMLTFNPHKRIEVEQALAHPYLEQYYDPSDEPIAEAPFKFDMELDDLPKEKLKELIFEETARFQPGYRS

[7] = target: T1, Cysteinyl leukotriene receptor 1 (Homo sapiens, UniProt Q9Y271); type: cell membranes, CHO-K1, Membrane; conditions: cho-k1; also: in other assays of this panel Not Active means under 50% inhibition at 10 µM
T1 sequence (Q9Y271 whole entry): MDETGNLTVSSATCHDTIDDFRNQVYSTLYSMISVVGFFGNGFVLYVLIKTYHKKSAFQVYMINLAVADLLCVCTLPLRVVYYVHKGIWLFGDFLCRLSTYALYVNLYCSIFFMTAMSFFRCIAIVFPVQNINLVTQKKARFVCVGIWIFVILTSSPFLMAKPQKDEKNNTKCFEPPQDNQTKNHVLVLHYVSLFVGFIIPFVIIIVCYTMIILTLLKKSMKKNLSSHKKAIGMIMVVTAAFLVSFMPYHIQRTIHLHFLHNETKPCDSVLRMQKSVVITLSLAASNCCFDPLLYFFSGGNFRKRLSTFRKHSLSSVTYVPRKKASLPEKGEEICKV

COc1ccccc1C(=O)N1CCC(Cc2ccccc2)CC1
Not Active: IC50 [1] | Ki [1] | IC50 [2] | Ki [2] | IC50 [3] | Ki [3] | IC50 [4] | Ki [4] | IC50 [5] | IC50 (Cytochrome P450 2D6) | Ki (Cytochrome P450 2D6) | IC50 [6] | IC50 [7]

Cc1ccccc1C(=O)N1CCC(Cc2ccccc2)CC1
Not Active: IC50 [1] | Ki [1] | IC50 [2] | Ki [2] | IC50 [3] | Ki [3] | IC50 [4] | Ki [4] | IC50 [5] | IC50 (Cytochrome P450 2D6) | Ki (Cytochrome P450 2D6) | IC50 [6] | IC50 [7]

O=C1CC[C@H](N2C(=O)c3ccccc3C2=O)C(=O)N1
Not Active: IC50 [1] | Ki [1] | IC50 [2] | Ki [2] | IC50 [3] | Ki [3] | IC50 [4] | Ki [4] | IC50 [5] | IC50 (Cytochrome P450 2D6) | Ki (Cytochrome P450 2D6) | IC50 [6] | IC50 [7]

N=C(Nc1ccccc1)Nc1ccccc1
Not Active: IC50 [1] | Ki [1] | IC50 [2] | Ki [2] | IC50 [3] | Ki [3] | IC50 [4] | Ki [4] | IC50 [5] | IC50 [6] | IC50 [7]

C[C@@H](O)[C@H](CO)NC(=O)[C@@H]1CSSC[C@H](NC(=O)[C@H](N)Cc2ccccc2)C(=O)N[C@@H](Cc2ccccc2)C(=O)N[C@H](Cc2c[nH]c3ccccc23)C(=O)N[C@@H](CCCCN)C(=O)N[C@@H]([C@@H](C)O)C(=O)N1 (H-[dF]CF[dW]KTC-{Threoninol(2S,3R)}; disulfide 2-7)
Not Active: IC50 [1] | Ki [1] | IC50 [2] | Ki [2] | IC50 [3] | Ki [3] | IC50 [4] | Ki [4] | IC50 [5] | IC50 (Cytochrome P450 2D6) | Ki (Cytochrome P450 2D6) | IC50 [6] | IC50 [7]

S=C=Nc1cccc2ccccc12 [1-NAPHTHYLISOTHIOCYANATE]
Not Active: IC50 [1] | Ki [1] | IC50 [2] | Ki [2] | IC50 [3] | Ki [3] | IC50 [4] | Ki [4] | IC50 [5] | IC50 (Cytochrome P450 2D6) | Ki (Cytochrome P450 2D6) | IC50 [6] | IC50 [7]

C[C@](O)(CS(=O)(=O)c1ccc(F)cc1)C(=O)Nc1ccc(C#N)c(C(F)(F)F)c1 [(R)-BICALUTAMIDE]
Not Active: IC50 [1] | Ki [1] | IC50 [2] | Ki [2] | IC50 [3] | Ki [3] | IC50 [4] | Ki [4] | IC50 [5] | IC50 (Cytochrome P450 2D6) | Ki (Cytochrome P450 2D6) | IC50 [6] | IC50 [7]

CCCC(=O)Nc1ccc(OCC(O)CNC(C)C)c(C(C)=O)c1 (stereo not drawn) [ACEBUTOLOL]
Not Active: IC50 [1] | Ki [1] | IC50 [2] | Ki [2] | IC50 [3] | Ki [3] | IC50 [4] | Ki [4] | IC50 [5] | IC50 (Cytochrome P450 2D6) | Ki (Cytochrome P450 2D6) | IC50 [6] | IC50 [7]

CC(=O)Nc1ccc(O)cc1 [ACETAMINOPHEN]
Not Active: IC50 [1] | Ki [1] | IC50 [2] | Ki [2] | IC50 [3] | Ki [3] | IC50 [4] | Ki [4] | IC50 [5] | IC50 (Cytochrome P450 2D6) | Ki (Cytochrome P450 2D6) | IC50 [6] | IC50 [7]

CCCCN1CCCCC1C(=O)Nc1c(C)cccc1C.Cl (stereo not drawn) [BUPIVACAINE HYDROCHLORIDE]
Not Active: IC50 [1] | Ki [1] | IC50 [2] | Ki [2] | IC50 [3] | Ki [3] | IC50 [4] | Ki [4] | IC50 [5] | IC50 [6] | IC50 [7]

O=NN(CCCl)C(=O)NCCCl [CARMUSTINE]
Not Active: IC50 [1] | Ki [1] | IC50 [2] | Ki [2] | IC50 [3] | Ki [3] | IC50 [4] | Ki [4] | IC50 [5] | IC50 [6] | IC50 [7]

CC1=C(C(=O)O)N2C(=O)[C@@H](NC(=O)[C@H](N)c3ccccc3)[C@H]2SC1 [CEPHALEXIN ANHYDROUS]
Not Active: IC50 [1] | Ki [1] | IC50 [2] | Ki [2] | IC50 [3] | Ki [3] | IC50 [4] | Ki [4] | IC50 [5] | IC50 [6] | IC50 [7]

O=C(N[C@H](CO)[C@H](O)c1ccc([N+](=O)[O-])cc1)C(Cl)Cl [CHLORAMPHENICOL]
Not Active: IC50 [1] | Ki [1] | IC50 [2] | Ki [2] | IC50 [3] | Ki [3] | IC50 [4] | Ki [4] | IC50 [5] | IC50 [6] | IC50 [7]

CCOC(=O)C(C)(C)Oc1ccc(Cl)cc1 [CLOFIBRATE]
Not Active: IC50 [1] | Ki [1] | IC50 [2] | Ki [2] | IC50 [3] | Ki [3] | IC50 [4] | Ki [4] | IC50 [5] | IC50 [6] | IC50 [7]

C[C@@H]1C[C@@H]([C@H](O)CC2CC(=O)NC(=O)C2)C(=O)[C@@H](C)C1 [CYCLOHEXIMIDE]
Not Active: IC50 [1] | Ki [1] | IC50 [2] | Ki [2] | IC50 [3] | Ki [3] | IC50 [4] | Ki [4] | IC50 [5] | IC50 [6] | IC50 [7]

C/C=C/C[C@@H](C)[C@@H](O)[C@H]1C(=O)N[C@@H](CC)C(=O)N(C)CC(=O)N(C)[C@@H](CC(C)C)C(=O)N[C@@H](C(C)C)C(=O)N(C)[C@@H](CC(C)C)C(=O)N[C@@H](C)C(=O)N[C@H](C)C(=O)N(C)[C@@H](CC(C)C)C(=O)N(C)[C@@H](CC(C)C)C(=O)N(C)[C@@H](C(C)C)C(=O)N1C [CYCLOSPORINE]
Not Active: IC50 [1] | Ki [1] | IC50 [2] | Ki [2] | IC50 [3] | Ki [3] | IC50 [4] | Ki [4] | IC50 [5] | IC50 [6] | IC50 [7]

CCN1CC(CCN2CCOCC2)C(c2ccccc2)(c2ccccc2)C1=O (stereo not drawn) [DOXAPRAM]
Not Active: IC50 [1] | Ki [1] | IC50 [2] | Ki [2] | IC50 [3] | Ki [3] | IC50 [4] | Ki [4] | IC50 [5] | IC50 [6] | IC50 [7]

CN(C)c1ccc(C(=C2C=CC(=[N+](C)C)C=C2)c2ccc(N(C)C)cc2)cc1.[Cl-] [GENTIAN VIOLET]
Not Active: IC50 [1] | Ki [1] | IC50 [2] | Ki [2] | IC50 [3] | Ki [3] | IC50 [4] | Ki [4] | IC50 [5] | IC50 [6] | IC50 [7]

NC(=O)NO [HYDROXYUREA]
Not Active: IC50 [1] | Ki [1] | IC50 [2] | Ki [2] | IC50 [3] | Ki [3] | IC50 [4] | Ki [4] | IC50 [5] | IC50 [6] | IC50 [7]

COc1ccc2cc([C@H](C)C(=O)O)ccc2c1 [NAPROXEN]
Not Active: IC50 [1] | Ki [1] | IC50 [2] | Ki [2] | IC50 [3] | Ki [3] | IC50 [4] | Ki [4] | IC50 [6] | IC50 [7]

COC(=O)C1=C(C)NC(C)=C(C(=O)OCC(C)C)C1c1ccccc1[N+](=O)[O-] (stereo not drawn) [NISOLDIPINE]
Not Active: IC50 [1] | Ki [1] | IC50 [2] | Ki [2] | IC50 [3] | Ki [3] | IC50 [4] | Ki [4] | IC50 [5] | IC50 [6] | IC50 [7]

CCn1cc(C(=O)O)c(=O)c2cc(F)c(N3CCN(C)CC3)cc21 [PEFLOXACIN]
Not Active: IC50 [1] | Ki [1] | IC50 [2] | Ki [2] | IC50 [3] | Ki [3] | IC50 [4] | Ki [4] | IC50 [5] | IC50 [6] | IC50 [7]

OC(CCN1CCCCC1)(c1ccccc1)C1CCCCC1 (stereo not drawn) [TRIHEXYPHENIDYL]
Not Active: IC50 [1] | Ki [1] | IC50 [2] | Ki [2] | IC50 [3] | Ki [3] | IC50 [4] | Ki [4] | IC50 [5] | IC50 [6] | IC50 [7]
